Where two headings read alike, the source gives them in different places.

Data set [1] concerns resistant E. coli strains. As to the kind of experiment: Cross-resistance testing of resistant E. coli strains. The data set is classed as cell-based, Escherichia coli. Particulars: for Cross-resistance of 17-resistant E. coli strains (in words): strains initially made resistant to 17; for Cross-resistance of nitrofurantoin-resistant E. coli strains (in words): strains initially made resistant to nitrofurantoin; for Cross-resistance of nifuroxazide-resistant E. coli strains (in words): strains initially made resistant to nifuroxazide.

Data set [2] concerns human FHs 74 Int small intestinal cells. As to the kind of experiment: Alamar Blue cell viability assay, FHs 74 Int small intestine cells. The following applies: for Cytotoxicity to human cells (in words): FHs 74 Int shown, FHC colon cells similar. For orientation: The colour change of resazurin is a common sign of viable cells or microbes.
The subject of the next data set is NEB 5-alpha E. coli. The data set is classed as cell-based, Escherichia coli. The following applies: 12-day serial passage, duplicates.
For another data set, the target named is E. coli GroEL/ES (Escherichia coli, UniProt P0A6F5). Nature of the data set: In situ NfsB-GroEL/ES-dMDH refolding assay. The following applies: activated by E. coli NfsB. The data set is classed as biochemical.
E. coli GroEL/ES, sequence (P0A6F5 2-548): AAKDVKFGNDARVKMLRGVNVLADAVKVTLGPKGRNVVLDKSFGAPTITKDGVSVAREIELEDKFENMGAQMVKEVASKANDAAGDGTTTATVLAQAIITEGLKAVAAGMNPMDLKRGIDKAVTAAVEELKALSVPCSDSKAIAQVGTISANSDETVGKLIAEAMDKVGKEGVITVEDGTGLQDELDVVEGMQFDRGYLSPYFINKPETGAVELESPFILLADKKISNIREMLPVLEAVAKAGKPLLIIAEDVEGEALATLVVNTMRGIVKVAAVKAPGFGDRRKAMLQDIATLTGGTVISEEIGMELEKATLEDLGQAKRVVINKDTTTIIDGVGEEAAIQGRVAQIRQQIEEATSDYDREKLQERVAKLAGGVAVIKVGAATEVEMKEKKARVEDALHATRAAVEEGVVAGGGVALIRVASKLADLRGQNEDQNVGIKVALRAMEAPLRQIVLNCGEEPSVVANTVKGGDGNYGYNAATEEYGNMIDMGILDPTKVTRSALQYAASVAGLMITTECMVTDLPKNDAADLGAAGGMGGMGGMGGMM
Another data set relates to human FHC colon cells. Nature of the data set: Alamar Blue cell viability assay, FHC colon cells. The following applies: CC50 FHC colon cells over EC50 E. coli proliferation.
Data set [3] concerns the target T1, native MDH (malate dehydrogenase) (Sus scrofa, UniProt P00346).
T1 sequence (P00346 25-338): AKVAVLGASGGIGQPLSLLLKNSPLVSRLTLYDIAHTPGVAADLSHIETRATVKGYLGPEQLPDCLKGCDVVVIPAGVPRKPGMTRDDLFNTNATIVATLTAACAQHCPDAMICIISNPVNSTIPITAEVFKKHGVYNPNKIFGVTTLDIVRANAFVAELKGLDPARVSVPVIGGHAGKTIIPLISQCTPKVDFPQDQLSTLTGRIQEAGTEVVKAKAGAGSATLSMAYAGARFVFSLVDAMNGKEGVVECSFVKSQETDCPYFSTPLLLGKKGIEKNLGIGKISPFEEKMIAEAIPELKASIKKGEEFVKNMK
Nature of the data set: Native MDH enzymatic activity counter-screen. The data set is classed as biochemical. A general note: Counterscreens check selectivity or assay interference.

The target of data set [4] is T1, native MDH (malate dehydrogenase). The data set is classed as biochemical.
Data set [5] deals with Klebsiella pneumoniae (ATCC #13883). As to the kind of experiment: K. pneumoniae bacterial proliferation assay. The data set is classed as cell-based.
Data set [6] deals with human mitochondrial HSP60/10 chaperonin system. The following applies: ref [59], [84]; cited from earlier work.

As to `O=C(N/N=C/c1ccc([N+](=O)[O-])o1)c1ccc(O)cc1` [Nifuroxazide], in data set [1], the “Cross-resistance of 17-resistant E. coli strains (in words)” value was “susceptible” and the “Cross-resistance of nitrofurantoin-resistant E. coli strains (in words)” value is recorded as “still sensitive”. The “Cytotoxicity to human cells (in words)” value in data set [2] is recorded as “low to no cytotoxicity”. The “Time for E. coli to develop intermediate resistance” value (shortened to “Time for E. coli”) in the data set with NEB 5-alpha E. coli fell in the range of 3 to 5 days. Besides, the “GroEL/ES inhibition in the presence of NfsB (in words)” value on E. coli GroEL/ES was “weak to moderate”.

Consider `O=C1CN(/N=C/c2ccc([N+](=O)[O-])o2)C(=O)N1` [Nitrofurantoin, reference compound], for which, in the data set on human FHC colon cells, the “SI (CC50 / EC50) Colon” value was above 146. Further, in data set [1], the “Cross-resistance of 17-resistant E. coli strains (in words)” value was “susceptible to nifuroxazide, but not nitrofurantoin”. The “Cross-resistance of nifuroxazide-resistant E. coli strains (in words)” value in data set [1] is given as “cross-resistant”. In addition, the “SI (CC50 / EC50) Intestine” value in [2] (CC50 FHs 74 Int cells over EC50 E. coli proliferation) is reported as above 146. In addition, in data set [2], the “Cytotoxicity to human cells (in words)” value is reported as “low to no cytotoxicity”. The “Time for E. coli” value in the data set on NEB 5-alpha E. coli lay within 3 to 5 days. Also, the “GroEL/ES inhibition in the presence of NfsB (in words)” value on E. coli GroEL/ES is “weak to moderate”. For the same molecule, the figures for the half-maximal inhibitory concentration (IC50) in data set [3] and in data set [4] were above 63 µM and above 56 µM, respectively.

On to `O=C(N/N=C/c1ccc([N+](=O)[O-])o1)c1cccs1` [compound 16], for which, in [2], the “Cytotoxicity to human cells (in words)” value is “low to no cytotoxicity”. Further, the “Inhibition of K. pneumoniae (in words)” value in data set [5] was “moderate inhibitors of K. pneumoniae”. For the same molecule, the IC50 (usually the point on the concentration scale where inhibition reaches its midpoint) in [3] was above 63 µM; in data set [4] it was above 56 µM.

For `O=C(N/N=C/c1ccc([N+](=O)[O-])o1)c1ccc(Cl)s1` [compound 17], in [1], the “Cross-resistance of nifuroxazide-resistant E. coli strains (in words)” value is given as “cross-resistant” and the “Cross-resistance of nitrofurantoin-resistant E. coli strains (in words)” value is listed as “still sensitive”. For the same molecule, the “Cytotoxicity to human cells (in words)” value in data set [2] is on record as “low to no cytotoxicity”. In addition, the “Time for E. coli” value with NEB 5-alpha E. coli lay within 3 to 5 days. The “Inhibition of K. pneumoniae (in words)” value in [5] was “moderate inhibitors of K. pneumoniae”. The same molecule showed a half-maximal inhibitory concentration (IC50) in [3] above 63 µM. In addition, the concentration for half-maximal inhibition (IC50) in data set [4] is above 56 µM.

Consider `O=C(N/N=C/c1ccc([N+](=O)[O-])o1)c1ccccc1` [compound 18], for which the results for the IC50 in [3] and in [4] were above 63 µM and above 56 µM, respectively.

On to `O=C(N/N=C/c1ccc([N+](=O)[O-])o1)c1ccncc1` [compound 19], for which the IC50 in [3] was above 63 µM; in [4], above 56 µM.

`COc1ccc(C(=O)N/N=C/c2ccc([N+](=O)[O-])o2)cc1` [compound 20]: the “SI (CC50 / EC50) Colon” value with human FHC colon cells was above 53. The “Cytotoxicity to human cells (in words)” value in [2] is given as “low to no cytotoxicity”. The half-maximal inhibitory concentration (IC50) was above 63 µM in data set [3] and above 56 µM in [4].

`CN(C)c1ccc(C(=O)N/N=C/c2ccc([N+](=O)[O-])o2)cc1` [compound 21]: the IC50 was above 63 µM in data set [3] and above 56 µM in data set [4].

Regarding `Cc1ccc(C(=O)Nc2ccc(S(=O)(=O)O)c3cc(S(=O)(=O)O)cc(S(=O)(=O)O)c23)cc1NC(=O)c1cccc(NC(=O)Nc2cccc(C(=O)Nc3cc(C(=O)Nc4ccc(S(=O)(=O)O)c5cc(S(=O)(=O)O)cc(S(=O)(=O)O)c45)ccc3C)c2)c1` [suramin], the “HSP60/10 inhibition (in words)” value in [6] is reported as “potent HSP60/10 inhibitor”.

The values above are taken from paper PMC7914298 (Bioorganic & medicinal chemistry, 2020).
